Values after ≈ are worked out from the molar mass of the structure shown.
Experiments:
physchem = conditions: pH 7.4, aqueous buffer, kinetic from dmso stock
[1] = tested on: HMC3 (human microglia) cell line; test: pHrodo-myelin phagocytosis/cell viability high content imaging assay: phagocytosis signal; format: cell-based
Method in brief: (§1)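 Imaging at high content captured pHrodo-myelin uptake about 22 hours after its addition, alongside a viability read-out from the same cells. Three measurements were derived, with intensity increase marking early apoptosis and decrease marking later apoptosis.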

[2] = tested on: BV2 (mouse microglia) cell line; test: as above; format: cell-based
Method in brief: as §1

[3] = tested on: BV2 (mouse microglia) cell line; test: pHrodo-myelin phagocytosis/cell viability high content imaging assay: viability (cell count, nuclear area, nuclear intensity); conditions: 10 μM, BV2
Method in brief: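 Cells adhered overnight, then were exposed to compounds at a single 10 μM for 48 h in total, with pHrodo-myelin added for the last 20 h. High-content imaging gave cell count per well as the main viability measure plus mean nuclear intensity per cell. Duplicate wells were averaged and expressed as % of untreated control.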

Row | SMILES | solubility kinetic (physchem) | Inhibition of human microglial phagocytosis at 10 μM (<70% control) ([1]; 10 μM, HMC3) | Stimulation of mouse microglial phagocytosis at 10 μM (>150% control) ([2]; 10 μM, BV2) | Mouse microglial cytotoxicity at 10 μM (<70% control) [3] | Inhibition of human microglial phagocytosis at 10 μM (<70% control) ([1]; HMC3, 10 μM) | Stimulation of mouse microglial phagocytosis at 10 μM (>150% control) ([2]; BV2, 10 μM) | Inhibition of mouse microglial phagocytosis at 10 μM (<70% control) ([2]; 10 μM, BV2) | Stimulation of human microglial phagocytosis at 10 μM (>150% control) ([1]; HMC3, 10 μM) | Inhibition of mouse microglial phagocytosis at 10 μM (<70% control) ([2]; BV2, 10 μM)
1 | CC(C)CCC[C@@H](C)[C@H]1CC[C@H]2[C@@H]3CC[C@H]4C[C@H](N)CC[C@]4(C)[C@H]3CC[C@]12C [3α-Aminocholestane] | 2.2 µM (≈ 0.853 µg/mL) | Y (The compound was found to inhibit phagocytosis (response threshold: <70% control) when human immortalized microglial cells were dosed at 10 μM (Y: yes)) | Y (The compound was found to stimulate phagocytosis (response threshold: >150% control) when murine immortalized microglial cells were dosed at 10 μM (Y: yes)) | Y (The compound was found to be cytotoxic (cell count threshold: <70% control) when murine immortalized microglial cells were dosed at 10 μM (Y: yes)) | – | – | – | – | –
2 | CN(C)CC#Cc1ccc(OCCCc2sc(N3CCc4cccc(C(=O)Nc5nc6ccccc6s5)c4C3)nc2C(=O)O)c(F)c1 [A-1155463] | 1.5 µM (≈ 1 µg/mL) | – | – | – | Y (The compound was found to inhibit phagocytosis (response threshold: <70% control) when human immortalized microglial cells were dosed at 10 μM (Y: yes)) | Y (The compound was found to stimulate phagocytosis (response threshold: >150% control) when murine immortalized microglial cells were dosed at 10 μM (Y: yes)) | – | – | –
3 | Cc1c(-c2ccc(O)cc2)n(Cc2ccc(OCCN3CCCCCC3)cc2)c2ccc(O)cc12 [Bazedoxifene acetate] | 10.8 µM | Y (The compound was found to inhibit phagocytosis (response threshold: <70% control) when human immortalized microglial cells were dosed at 10 μM (Y: yes)) | – | – | – | – | Y (The compound was found to inhibit phagocytosis (response threshold: <70% control) when murine immortalized microglial cells were dosed at 10 μM (Y: yes)) | – | –

Second part, led by results:

Row | solubility kinetic (physchem) | SMILES | Inhibition of human microglial phagocytosis at 10 μM (<70% control) ([1]; 10 μM, HMC3) | Stimulation of mouse microglial phagocytosis at 10 μM (>150% control) ([2]; 10 μM, BV2) | Mouse microglial cytotoxicity at 10 μM (<70% control) [3] | Inhibition of human microglial phagocytosis at 10 μM (<70% control) ([1]; HMC3, 10 μM) | Stimulation of mouse microglial phagocytosis at 10 μM (>150% control) ([2]; BV2, 10 μM) | Inhibition of mouse microglial phagocytosis at 10 μM (<70% control) ([2]; 10 μM, BV2) | Stimulation of human microglial phagocytosis at 10 μM (>150% control) ([1]; HMC3, 10 μM) | Inhibition of mouse microglial phagocytosis at 10 μM (<70% control) ([2]; BV2, 10 μM)
4 | 115 µM (≈ 54.3 µg/mL) | CNC(=O)CN1CCC(Oc2cc3c(Nc4cccc(Cl)c4F)ncnc3cc2OC)CC1 [Sapitinib (AZD8931)] | – | – | – | – | – | – | Y (The compound was found to stimulate phagocytosis (response threshold: >150% control) when human immortalized microglial cells were dosed at 10 μM (Y: yes)) | Y (The compound was found to inhibit phagocytosis (response threshold: <70% control) when murine immortalized microglial cells were dosed at 10 μM (Y: yes))
5 | 8.7 µM (≈ 3.77 µg/mL) | CC(C)Nc1cc(-c2c[nH]c(C(=O)N[C@H](CO)c3cccc(Cl)c3)c2)c(Cl)cn1 [Ulixertinib] | Y (The compound was found to inhibit phagocytosis (response threshold: <70% control) when human immortalized microglial cells were dosed at 10 μM (Y: yes)) | Y (The compound was found to stimulate phagocytosis (response threshold: >150% control) when murine immortalized microglial cells were dosed at 10 μM (Y: yes)) | Y (The compound was found to be cytotoxic (cell count threshold: <70% control) when murine immortalized microglial cells were dosed at 10 μM (Y: yes)) | – | – | – | – | –
6 | 134 µM (≈ 96.7 µg/mL) | C=Cc1c(C)c2cc3nc(cc4[nH]c(cc5nc(cc1[nH]2)C(C)=C5CCC(=O)O)c(CCC(=O)OC)c4C)[C@@]1(C)C3=CC=C(C(=O)OC)[C@H]1C(=O)OC [Verteporfin] | – | – | – | Y (The compound was found to inhibit phagocytosis (response threshold: <70% control) when human immortalized microglial cells were dosed at 10 μM (Y: yes)) | Y (The compound was found to stimulate phagocytosis (response threshold: >150% control) when murine immortalized microglial cells were dosed at 10 μM (Y: yes)) | – | – | –
